Assay results from patent US20240423927A1, “COMPOSITIONS AND METHODS FOR USE IN IMMUNOTHERAPY” (INSTITUT CURIE, priority 2021, published 2024).

Legend:
[1] = system: STING; conditions: comparative statement (hSTING vs mSTING; or vs cGAMP); cited from earlier work
[2] = target: STING (Homo sapiens, UniProt Q86WV6); conditions: compared with cGAMP, reporter assays; cited from earlier work
[3] = system: tumor-specific CD8 and CD4 T cell responses (PBMCs); assay: Ex vivo stimulation assay: IFN-γ ELISPOT of PBMCs stimulated with OVA and p15 peptides; format: in vivo, C57BL/6J mice; conditions: Example 1, four days after third s.c. injection, cGAMP-VLP 50 ng cGAMP s.c., Imatinib 10 mg/kg i.p.
Description: […] Mice were bled in the retro-orbital sinus and PBMCs were isolated from whole blood by lysing the red blood cells. […] Spots were developed using a mouse IFN-γ ELISPOT antibody (Diaclone) according to the manufacturer's instructions, and the number of spots enumerated using an ImmunoSpot analyzer.

[4] = system: MCA-OVA tumor; assay: Tumor growth monitoring in MCA-OVA tumor model; format: in vivo, C57BL/6J mice; conditions: Example 1; cGAMP-VLP 50 ng cGAMP s.c. three times, Imatinib 10 mg/kg i.p. days 6-10
[5] = system: MCA-OVA tumor; assay: Survival of treated MCA-OVA tumor-bearing mice; format: in vivo, C57BL/6J mice; conditions: Example 1; log-rank test; cGAMP-VLP 50 ng cGAMP s.c., Imatinib 10 mg/kg i.p.

Sequence of STING (Homo sapiens, UniProt Q86WV6) (Q86WV6 whole entry): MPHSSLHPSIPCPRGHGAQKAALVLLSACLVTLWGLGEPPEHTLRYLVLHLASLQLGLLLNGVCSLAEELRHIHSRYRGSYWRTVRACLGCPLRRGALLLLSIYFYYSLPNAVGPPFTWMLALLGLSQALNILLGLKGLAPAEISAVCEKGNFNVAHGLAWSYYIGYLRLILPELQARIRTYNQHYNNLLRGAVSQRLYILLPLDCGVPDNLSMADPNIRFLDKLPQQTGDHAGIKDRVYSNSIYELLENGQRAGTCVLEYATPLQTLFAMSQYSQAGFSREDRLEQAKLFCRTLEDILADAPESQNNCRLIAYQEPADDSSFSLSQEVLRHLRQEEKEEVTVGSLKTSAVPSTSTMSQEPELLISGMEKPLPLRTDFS

| Compound | Affinity/binding to STING [1] | Potency for inducing type I IFN [2] | Tumor-specific T cell responses in peripheral blood (IFN-γ ELISPOT) [3] | Tumor growth [4] | Survival (death event: tumor size >2 cm^3) [5] |
| --- | --- | --- | --- | --- | --- |
| Diaminobenzimidazole | enhanced binding to STING and cellular function as compared to cGAMP |  |  |  |  |
| COc1c(O)cc2oc3cc(O)c(CC=C(C)C)c(O)c3c(=O)c2c1CC=C(C)C [α-mangostin] | higher affinity to human (h)STING than to mSTING | weaker potency for inducing type I IFN compared with cGAMP |  |  |  |
| Cc1ccc(NC(=O)c2ccc(CN3CCN(C)CC3)cc2)cc1Nc1nccc(-c2cccnc2)n1 [Imatinib] |  |  | did not induce tumor-specific T cell responses compared to the PBS group | no effect on the tumor growth compared to control group | did not show survival benefit compared to PBS treatment |
